# Test results published in ChEMBL document CHEMBL1914362, “Highlights of marine invertebrate-derived biosynthetic products: their biomedical potential and possible production by microbial associants” (Bioorg Med Chem, 2011).
# Key:
# [1] = system: HT-29; experiment: Cytotoxicity against human HT-29 cells; format: functional, cell-based
# [2] = system: HCT-116; experiment: Cytotoxicity against human HCT116 cells; format: functional, cell-based
# [3] = Irreversible inhibition of 20S proteasome
SMILES,IC50 [1],also measured
C=CC(C)(C)c1[nH]cnc1/C=C1\NC(=O)[C@H](Cc2ccccc2)NC1=O,0.44 µM,
C[C@@]12OC(=O)[C@]1([C@@H](O)[C@@H]1C=CCCC1)NC(=O)[C@@H]2CCCl [MARIZOMIB],,IC50 [2]: 0.035 µM
CC(C)[C@H](O)[C@@]12NC(=O)[C@H](C)[C@@H]1OC2=O [OMURALIDE],,IC50 [3]: 0.049 µM
CC(C)(C)c1[nH]cnc1/C=c1\[nH]c(=O)/c(=C/c2ccccc2)[nH]c1=O [PLINABULIN],0.018 µM,
